Measured values from PMC3293837, “Biophysical Property and Broad Anti-HIV Activity of Albuvirtide, a 3-Maleimimidopropionic Acid-Modified Peptide Fusion Inhibitor” (PLoS ONE, 2012).

Experiments:
[1] = system: HIV-1 subtype A pseudoviruses; type: cell-based; conditions: mean over subtype A pseudoviruses of Table 1; TZM-bl
Description: (§1) A panel of plasmids encoding HIV-1 Envs were obtained through the AIDS Research and Reference Reagent Program (ARRRP), Division of AIDS, NIAID, NIH, including subtype A Env clones pSVIII-92RW020.5 and 92UG037.8 from Dr. B.H. Hahn; subtype B Env clones SC422661.8, TRO.11 and AC10.0.29 from Drs. D. Montefiori, F. Gao and M. Li, pRHPA4259.7 and pREJO4541.67 from Drs. B.H. Hahn and J.F. Salazar-Gonzalez, and pCAAN5342.A2 from Drs. B.H. Hahn and D.L. Kothe; subtype C Env clones Du172.17 and Du422.1 from Drs. D. Montefiori, F. Gao, S. Abdool Karim and G. Ramjee, CAP45.2.00.G3 from Drs. L. Morris, K. Mlisana and D. Montefiori, ZM197M.PB7 from Drs. B.H. Hahn, Y. Li and J.F. Salazar-Gonzalez, ZM109F.PB4 from Drs. E. Hunter and C. Derdeyn. Six CRF07_BC Env clones (CH064.20, CH070.1, CH091.9, CH110.2, CH119.10 and CH120.6) were generous gifts by Dr. Y. Shao in the Chinese Center for Disease Control and Prevention, Beijing, China. A panel of Env clones derived from subtype B′ (B01, B02, B04, and 43-22), CRF01_AE (SHX335.24, YN192.31, AE01, AE03, GX2010.36, GX11.13, GX2010.36H, BJ5.11), and CRF07_BC (BC02, BC03, BC05, BC07, BC14, SC19-15, BJ22-5, YN148R-9, XJ50-6, HB5-3) were kindly provided by Dr. Y. Wang from the National Institute for the Control of Pharmaceutical and Biological Products, Beijing, China.

[2] = system: HIV-1 subtype B′ pseudoviruses; type: cell-based; conditions: mean over subtype B′ pseudoviruses of Table 2; TZM-bl
Description: as §1

enfuvirtide
IC50 [1]: 14.5 nM | IC50 [2]: 19.5 nM
